According to US9783509B2, “Six-membered C-N-linked aryl sulfide derivatives and aryl sulfoxide derivatives as pest conrol agents” (BAYER CROPSCIENCE AKTIENGESELLSCHAFT, priority 2013, dated 2017):
Where two headings read alike, the source gives them in different places.

How the values were obtained:
[1] = system: southern root-knot nematode (Meloidogyne incognita); assay: Meloidogyne incognita test (sand, lettuce, acetone solvent, 14 days); type: in vivo; settings: application rate 20 ppm, after 14 days; for pest or weed control at 20 ppm: Meloidogyne incognita, 336 h, read-out: nematicidal efficacy (formation of galls)
Procedure: Meloidogyne incognita Test
Solvent: 125.0 parts by weight of acetone
To produce an appropriate active ingredient formulation, 1 part by weight of active ingredient is mixed with the stated amount of solvent and the concentrate is diluted with water to the desired concentration.
Vessels are filled with sand, active ingredient solution, an egg/larvae suspension of the southern root-knot nematode (Meloidogyne incognita) and lettuce seeds. The lettuce seeds germinate and the plants develop. The galls develop on the roots
After 14 days, the nematicidal efficacy in % is determined by the formation of galls. 100% means that no galls were found; 0% means that the number of galls on the treated plants corresponds to the untreated control.

[2] = system: greenhouse red spider mite (Tetranychus urticae); assay: Tetranychus urticae spray test, OP-resistant (bean leaf discs); type: in vivo; settings: after 6 days; for pest or weed control at 500 g/ha: Tetranychus urticae, foliar, 144 h, read-out: efficacy (spider mites killed)
Procedure: Tetranychus urticae—Spray Test, OP-Resistant
Solvent: 78.0 parts by weight of acetone • • 1.5 parts by weight of dimethylformamide
Emulsifier: alkylaryl polyglycol ether
To produce an appropriate active ingredient formulation, 1 part by weight of active ingredient is dissolved using the specified parts by weight of solvent and made up with water containing an emulsifier concentration of 1000 ppm until the desired concentration is attained. To produce further test concentrations, the preparation is diluted with emulsifier-containing water.
Discs of bean leaves (Phaseolus vulgaris) infested by all stages of the greenhouse red spider mite (Tetranychus urticae) are sprayed with an active ingredient formulation of the desired concentration.
After 6 days, the efficacy in % is determined. 100% means that all the spider mites have been killed; 0% means that none of the spider mites have been killed.

[3] = log P by reversed-phase HPLC analogously to OECD Guideline 117; type: physicochemical; settings: for chromatographic logP: reversed-phase C18 HPLC column
Procedure: The log P values were determined analogously to OECD Guideline 117 (EC Directive 92/69/EEC) by HPLC (high-performance liquid chromatography) using reversed-phase columns (C 18), by the following methods:
[a] LC-MS determination in the acidic range is effected at pH 2.7 with 0.1% aqueous formic acid and acetonitrile (containing 0.1% formic acid) as eluents with a linear gradient from 10% acetonitrile to 95% acetonitrile; or with 0.025% aqueous trifluoroacetic acid and acetonitrile (containing 0.025% trifluoroacetic acid) as eluents with a linear gradient from 50% acetonitrile to 80% acetonitrile.
[b] LC-MS determination in the neutral range is effected at pH 7.8 with 0.001 molar aqueous ammonium hydrogencarbonate solution and acetonitrile as eluents; linear gradient from 10% acetonitrile to 95% acetonitrile.
Calibration is effected with solutions of a homologous series of unbranched alkan-2-ones (having 3 to 16 carbon atoms) with known log P values (log P values determined on the basis of the retention times by linear interpolation between two successive alkanones).

[4] = [a] acidic range, pH 2.7, formic acid (or trifluoroacetic acid)/acetonitrile
[5] = [b] neutral range, pH 7.8, ammonium hydrogencarbonate/acetonitrile
[6] = pH 2.7, running text, [a] acidic range, pH 2.7, read-out: log P[a]
[7] = pH 2.7, table column, [a] acidic range, pH 2.7, formic acid (or trifluoroacetic acid)/acetonitrile, read-out: LogP[a]
[8] = pH 7.8, running text, [b] neutral range, pH 7.8, read-out: log P[b]
[9] = pH 7.8, table column, [b] neutral range, pH 7.8, ammonium hydrogencarbonate/acetonitrile, read-out: LogP[b]

Row | SMILES | nematicidal efficacy (formation of galls) [1] [%] | efficacy (spider mites killed) ([2]; application rate 500 g/ha) [%] | LogP[a] [3, 4] | LogP[b] [3, 5] | further results
1 | Cc1ccc(-n2ccc(=O)n(CC(F)(F)F)c2=O)cc1SCC(F)(F)F [compound 84] | 100 | 100 | 3.16 | 3.15 | –
2 | Cc1cc(F)c(-n2ccc(=O)n(CC3CC3)c2=O)cc1SCC(F)(F)F [compound 74] | 100 | 90 | 3.24 | 3.38 | –
3 | CCCn1c(=O)ccn(-c2cc(SCC(F)(F)F)c(C)cc2F)c1=O [compound 78] | 100 | 90 | 3.13 | 3.27 | –
4 | Cc1cc(F)c(-n2ncc(=O)n(CC#N)c2=O)cc1SCC(F)(F)F [compound 39] | 90 | 100 | 2.96 | 2.9 | –
5 | Cc1cc(F)c(-n2ccc(=O)n(C(C)C)c2=O)cc1[S+]([O-])CC(F)(F)F (racemic) [compound 63] | 100 | 90 | 2.22 | 2.31 | –
6 | Cc1cc(F)c(-n2ccc(=O)n(C(C)C)c2=O)cc1SCC(F)(F)F [compound 75] | 100 | – | 3.21 | 3.35 | efficacy (spider mites killed) ([2]; application rate 100 g/ha): 90%
7 | Cc1ccc(-n2ccc(=O)n(C(C)C)c2=O)cc1SCC(F)(F)F [compound 87] | 90 | 100 | 3.18 | 3.25 | –
8 | C=CCn1c(=O)ccn(-c2cc(SCC(F)(F)F)c(C)cc2F)c1=O [compound 77] | 100 | 90 | 3.08 | 3.06 | –
9 | O=c1cnn(-c2cc([S+]([O-])CC(F)(F)F)c(Cl)cc2Cl)c(=O)[nH]1 (racemic) [compound 15] | 90 | – | 2.02 | 1.1 | –
10 | Cc1cc(F)c(-n2ccc(=O)n(Cc3ccc(F)cc3)c2=O)cc1[S+]([O-])CC(F)(F)F (racemic) [compound 64] | 100 | – | 2.68 | 2.77 | efficacy (spider mites killed) ([2]; application rate 100 g/ha): 90%
11 | Cc1ccc(-n2ccc(=O)n(CC#N)c2=O)cc1[S+]([O-])CC(F)(F)F (stereo not shown) [compound 100] | 100 | 90 | 1.63 | 1.62 | –
12 | Cc1ccc(-n2ccc(=O)n(CC3CC3)c2=O)cc1SCC(F)(F)F [compound 86] | 90 | 100 | 3.21 | 3.31 | –
13 | CCn1c(=O)ccn(-c2cc([S+]([O-])CC(F)(F)F)c(C)cc2F)c1=O (stereo not shown) [Ex. No. 59, 3-Ethyl-1-{2-fluoro-4-methyl-5-[(2,2,2-trifluoroethyl)sulphinyl]phenyl}pyrimidine-2,4(1H,3H)-dione] | – | – | – | – | pest or weed control at 20 ppm [1]: 100%; pest or weed control at 500 g/ha ([2]; application rate 500 g/ha): 90%; chromatographic logP [3, 6]: 1.94; chromatographic logP [3, 7]: 1.88; chromatographic logP [3, 8]: 1.88; chromatographic logP [3, 9]: 1.94
14 | Cc1ccc(-n2ccc(=O)n(CC(F)(F)F)c2=O)cc1[S+]([O-])CC(F)(F)F (stereo not shown) [compound 90] | 100 | 100 | 2.18 | 2.21 | –
15 | Cc1cc(F)c(-n2ncc(=O)n(C(C)C)c2=O)cc1[S+]([O-])CC(F)(F)F (racemic) [compound 30] | 100 | 100 | 2.64 | 2.58 | –
16 | COCn1c(=O)ccn(-c2cc([S+]([O-])CC(F)(F)F)c(C)cc2F)c1=O (stereo not shown) [compound 68] | 100 | 90 | 1.67 | 1.74 | –
17 | C#CCn1c(=O)ccn(-c2cc([S+]([O-])CC(F)(F)F)c(C)cc2F)c1=O (stereo not shown) [compound 67] | 100 | – | 1.86 | 1.92 | efficacy (spider mites killed) ([2]; application rate 20 g/ha): 90%
18 | Cc1cc(F)c(-n2ccc(=O)[nH]c2=O)cc1[S+]([O-])CC(F)(F)F (stereo not shown) [Ex. No. 56, 1-{2-Fluoro-4-methyl-5-[(2,2,2-trifluoroethyl)sulphinyl]phenyl}pyrimidine-2,4(1H,3H)-dione] | – | – | – | – | pest or weed control at 20 ppm [1]: 90%; pest or weed control at 500 g/ha ([2]; application rate 500 g/ha): 100%; chromatographic logP [3, 6]: 1.3; chromatographic logP [3, 7]: 1.24; chromatographic logP [3, 8]: 1.24; chromatographic logP [3, 9]: 1.3
19 | CCn1c(=O)ccn(-c2cc(SCC(F)(F)F)c(C)cc2F)c1=O [Ex. No. 71, 3-Ethyl-1-{2-fluoro-4-methyl-5-[(2,2,2-trifluoroethyl)sulphanyl]phenyl}pyrimidine-2,4(1H,3H)-dione] | – | – | – | – | pest or weed control at 20 ppm [1]: 100%; pest or weed control at 500 g/ha ([2]; application rate 500 g/ha): 90%; chromatographic logP [3, 6]: 2.93; chromatographic logP [3, 7]: 2.86; chromatographic logP [3, 8]: 2.86; chromatographic logP [3, 9]: 2.93
20 | Cc1ccc(-n2ccc(=O)n(C)c2=O)cc1[S+]([O-])CC(F)(F)F (stereo not shown) [Ex. No. 57, 3-Methyl-1-{4-methyl-3-[(2,2,2-trifluoroethyl)sulphinyl]phenyl}pyrimidine-2,4(1H,3H)-dione] | – | – | – | – | pest or weed control at 20 ppm [1]: 90%; chromatographic logP [3, 6]: 1.5; chromatographic logP [3, 7]: 1.49; chromatographic logP [3, 8]: 1.49; chromatographic logP [3, 9]: 1.5
21 | Cc1cc(C)c([S+]([O-])CC(F)(F)F)cc1-n1ncc(=O)n(C(C)C)c1=O (racemic) [compound 38] | – | 100 | 2.69 | 2.67 | –
22 | Cc1cc(C)c(-n2ncc(=O)n(CC(C)C)c2=O)cc1SCC(F)(F)F [compound 41] | – | 90 | 4.18 | 4.1 | –
23 | Cc1cc(C)c([S+]([O-])CC(F)(F)F)cc1-n1ccc(=O)n(C)c1=O (stereo not shown) [compound 93] | – | 100 | 1.68 | 1.7 | –
24 | Cc1ccc(-n2ccc(=O)[nH]c2=O)cc1[S+]([O-])CC(F)(F)F (stereo not shown) [compound 91] | – | 100 | 1.20 | 1.19 | –
25 | Cc1cc(C)c(-n2ccc(=O)[nH]c2=O)cc1SCC(F)(F)F [compound 89] | – | 100 | 2.18 | 2.25 | –
26 | Cc1cc(F)c(-n2ccc(=O)n(CC(C)C)c2=O)cc1[S+]([O-])CC(F)(F)F (stereo not shown) [compound 69] | 100 | – | 2.48 | 2.55 | –
27 | Cn1c(=O)cnn(-c2cc([S+]([O-])CC(F)(F)F)c(Cl)cc2Cl)c1=O (racemic) [compound 13] | – | 90 | 2.48 | – | –
28 | CCn1c(=O)ccn(-c2cc(SCC(F)(F)F)c(C)cc2C)c1=O [compound 96] | – | 100 | 2.98 | 3.07 | –
29 | O=c1cnn(-c2cc(SCC(F)(F)F)c(Cl)cc2Cl)c(=O)[nH]1 [compound 8] | 90 | – | 2.72 | 1.4 | –
